Assays:
[1] = DPPH radical scavenging assay; details: for EC50: ethanol, absorbance at 517 nm, 30 min, mean ± SEM, three experiments
Experimental: The antioxidant activity of T1 and its hydroxylated derivatives T2–6 was evaluated via DPPH assay, which is based on the ability of the stable DPP· radical species to be converted in its diamagnetic form (DPPH) by accepting an H· from the tested compound. […] From the evaluation of the relative decrease in absorbance at different concentrations of each tested compound, the antioxidant activities were evaluated by reporting their EC50 values, as shown in Table 1.
(§1) Radical scavenging activities were measured with DPPH and ABTS radical scavenging assays. […] In brief, for the DPPH antioxidant assay procedure, each test compound was dissolved in DMSO at 1.0 mM concentration and then diluted with absolute ethanol in the 500–2.0 µM concentration range. A solution of the DPPH radical (0.1 mM, absolute ethanol) was freshly prepared, stored in the dark, and used within a few hours. Each test solution (1500 µL) was vigorously mixed to an equal volume of DPPH inside a cuvette, and the molecular absorbance at 517 nm was recorded for 30 min. Each test was evaluated in three independent experiments. Ascorbic acid was used as the reference compound. For the ABTS method, based on the capacity of an antioxidant to scavenge the free ABTS^+ generated in the aqueous phase by reacting with a strong oxidizing, the free radical ABTS was produced by reacting 7 mM ABTS with 2.45 mM potassium persulfate in aqueous solution and kept in darkness at room temperature for 24 h before use. Samples of each compound (10 µL) were added to 990 µL of ABTS, and the reduction of the blue-green radical ABTS by hydrogen-donating antioxidants was evaluated by measuring the absorbance at 734 nm after 1 min incubation. The 6-hydroxy-2,5,7,8-tetramethylchromane-2-carboxylic acid (Trolox) was used as the antioxidant standard.

[2] = ABTS radical scavenging assay; details: absorbance at 734 nm after 1 min; mean ± SEM, three experiments
Experimental: as §1

mushroom tyrosinase = assay: Tyrosinase inhibition assay (L-DOPA, dopachrome at 492 nm; Lineweaver–Burk plots); format: biochemical; details: for IC50: L-DOPA 0.5 mM, pH 6.8, 37 °C, mean ± SD, three experiments; for Ki: secondary plot of slope, read-out: Ki (inhibitor binding with free enzyme); for inhibition mode: Lineweaver–Burk plots, L-DOPA
Experimental: The inhibition of mushroom tyrosinase was evaluated as previously described with slight modifications. A mixture containing 50 mM phosphoric acid buffer solution (pH 6.8), a solution of mushroom tyrosinase (72 U/mL final concentration; Sigma Chemical Co., Milan, Italy), and DMSO with or without the sample were incubated at 37 °C for 10 min. Then, L-DOPA solution (0.5 mM final) was added, and the reaction was monitored following the molecular absorbance at 492 nm that resulted from the formation of the dopachrome product. Measurements were performed using a FLUOstar OPTIMA (BMG Labtech, Offenburg, Germany). […] The inhibition mode was analysed using the Lineweaver–Burk plots.

[3] = Potentiometric and spectrophotometric titrations (protonation constants, speciation); format: physicochemical; details: for Logβ / pK: 25 °C, NaCl 0.1 M; for species present at pH of the enzymatic inhibitory studies: pH 6.8
Experimental: Potentiometric titrations were performed in a thermostated vessel at 25 °C in 0.1 M ionic strength (NaCl) using a Mettler-Toledo Seven Compact pH/Ion-meter and equipped with a Mettler-Toledo InLab Micro Pro combined glass electrode with an integrated temperature probe. The glass electrode was calibrated daily and checked using the GLEE software package. UV–visible (UV–Vis) measurements were carried out with an Agilent Cary 60 spectrophotometer using a 0.1 cm quartz cuvette. Protonation constants of the studied molecules were determined via spectrophotometric and potentiometric titrations. Solutions of ligands were prepared daily by dissolving a suitable amount of the compound in DMSO (concentration ≈ 12 mM) prior to the required dilution in 0.1 M NaCl (final DMSO content 1% V/V, concentration ≈ 1.2∙10^−4 M). Four HCl equivalents for T1, five for T2–4, and six for T5–6 were added before titrating with an NaOH standard solution. Potentiometric and spectrophotometric data were simultaneously analysed using the Hyperquad 2006 software package. Speciation diagrams were obtained using Hyss 2009 program with the spectrophotometric data. The number of linearly independent absorbing species was found by applying the eigenvalue analysis to the absorbance data matrix.

[4] = Cell viability assay (MTT); format: cell-based, Murine; details: mouse, B16F10 melanoma cells, 100 μM, percentage of control
Experimental: (§2) The cellular cytotoxicity of compound T6 was investigated using a 3-(4,5-dimethylthiazol-2-yl)-2,5-diphenil-tetrazolium bromide (MTT) assay. Murine melanoma B16F10 cells were seeded in 96-well plates at a density of 5 × 10^3 cells/well and cultured in Dulbecco’s Modified Eagle Medium (DMEM) with 10% fetal bovine serum at 37 °C in a humidified atmosphere with 5% CO2. The B16F10 cell line was exposed for 48 h to compound T6 at concentrations ranging from 4 to 100 μM. After incubation, culture supernatants were removed and exchanged with a medium containing 0.5 mg/mL MTT. Then, after 3 h of incubation at 37 °C, the cells were lysed with 100 μL of DMSO. The absorbance was determined at 560 nm using a microplate reader (Multiskan FC-Thermo Scientific Inc. Waltham, MA, USA).

B16F10 cells = assay: Cell viability assay (MTT); format: cell-based, Murine; details: 48 h
Experimental: as §2

[5] = L + H^+ ⇌ HL (first protonation)

Row | Compound | EC50 [1] [µM] | EC50 [2] [µM] | IC50 (mushroom tyrosinase) [µM] | Logβ ([3]; L + 2H^+ ⇌ H2L) | Logβ ([3]; L + 3H^+ ⇌ H3L) | Logβ ([3]; L + 4H^+ ⇌ H4L) | Logβ [3, 5] | pK [3, 5] | pK ([3]; step to H2L) | pK ([3]; step to H3L) | pK ([3]; step to H4L) | melting point | other results
1 | C/C(=N\NC(N)=S)c1cc2cc(O)c(O)cc2oc1=O [T5, (1E)-2-(1-(6,7-dihydroxy-2-oxo-2H-chromen-3-yl)ethylidene)hydrazine-1-carbothioamide] | 7.1 ± 0.3 | 9 ± 1 | 6 ± 2 | 18.46 (9) | 24.76 (7) | 29.50 (6) | 10.7 (1) | 10.7 | 7.8 | 6.3 | 4.7 | 228 to 230 °C (dec.) | species present at pH of the enzymatic inhibitory studies [3]: monoanionic form, H2L^-
2 | Cc1c(C)c2c(c(C)c1O)CCC(C)(C(=O)O)O2 (stereo not drawn) [Trolox, 6-hydroxy-2,5,7,8-tetramethylchromane-2-carboxylic acid, reference compound] |  | 13 ± 1 |  |  |  |  |  |  |  |  |  |  | 
3 | C/C(=N\NC(N)=S)c1cc2cc(O)ccc2oc1=O [T2, (1E)-2-(1-(6-hydroxy-2-oxo-2H-chromen-3-yl)ethylidene)hydrazine-1-carbothioamide] | > 250 | 25.7 ± 0.4 | 14 ± 7 | 17.24 (6) | 22.4 (1) | 26.7 (1) | 10.20 (8) | 10.2 |  | 5.4 | 4.3 | 222 to 224 °C (dec.) | 
4 | C/C(=N\NC(N)=S)c1cc2ccccc2oc1=O [T1, (1E)-2-(1-(2-oxo-2H-chromen-3-yl)ethylidene)hydrazine-1-carbothioamide] | > 250 | 72 ± 6 | 4 ± 2 | 13.47 (9) | 17.45 (8) |  | 8.46 (9) | 8.5 | 5.0 | 4.0 |  |  | Ki (mushroom tyrosinase; L-DOPA substrate): 0.85 µM; inhibition mode (mushroom tyrosinase): competitive inhibition; species present in blood plasma ([3]; pH 7.4): neutral form (as HL)
5 | C/C(=N\NC(N)=S)c1cc2ccc(O)cc2oc1=O [T3, (1E)-2-(1-(7-hydroxy-2-oxo-2H-chromen-3-yl)ethylidene)hydrazine-1-carbothioamide] | > 250 | 36 ± 1 | 5 ± 2 | 17.6 (1) | 23.26 (7) | 26.7 (1) | 10.5 (1) | 10.5 | 7.1 | 5.7 | 3.4 |  | 
6 | C/C(=N\NC(N)=S)c1cc2ccc(O)c(O)c2oc1=O [T6, (1E)-2-(1-(7,8-dihydroxy-2-oxo-2H-chromen-3-yl)ethylidene)hydrazine-1-carbothioamide] | 17.9 ± 0.4 | 8.8 ± 0.4 | 4.1 ± 0.7 | 19.3 (1) | 25.1 (1) | 29.5 (1) | 10.5 (2) | 10.5 | 8.8 | 5.8 | 4.4 | 228 to 230 °C (dec.) | Kis (inhibitor binding with enzyme–substrate complex) (mushroom tyrosinase; L-DOPA substrate, secondary plot of 1/Vmax): 10.65 µM; Ki (mushroom tyrosinase; L-DOPA substrate): 5.88 µM; inhibition mode (mushroom tyrosinase): mixed-type inhibitor; species present at pH of the enzymatic inhibitory studies [3]: monoanionic form, H2L^-; viability at 48 h, 100 µM [4]: > 90%; cytotoxic effect (in words) (B16F10 cells; 4 μM): no cytotoxic effect; cytotoxicity (in words) (B16F10 cells; 4–100 μM): not cytotoxic

Further compounds by falling EC50 [1], results first:

Row | EC50 [1] [µM] | EC50 [2] [µM] | IC50 (mushroom tyrosinase) [µM] | Logβ ([3]; L + 2H^+ ⇌ H2L) | Logβ ([3]; L + 3H^+ ⇌ H3L) | Logβ ([3]; L + 4H^+ ⇌ H4L) | Logβ [3, 5] | pK [3, 5] | pK ([3]; step to H2L) | pK ([3]; step to H3L) | pK ([3]; step to H4L) | melting point | Compound | other results
7 | 28 ± 2 | 21.8 ± 0.8 | 5.7 ± 0.8 | 17.26 (1) | 22.94 (5) | 26.5 (2) | 10.4 (1) | 10.4 | 6.9 | 5.7 | 3.6 | 208 to 210 °C (dec.) | C/C(=N\NC(N)=S)c1cc2cccc(O)c2oc1=O [T4, (1E)-2-(1-(8-hydroxy-2-oxo-2H-chromen-3-yl)ethylidene)hydrazine-1-carbothioamide] | radical scavenging / antioxidant activity in DPPH assay (in words) ([1]; in comparison with ascorbic acid): modest antioxidant activity
8 | 18.6 ± 0.6 |  |  |  |  |  |  |  |  |  |  |  | O=C1O[C@H]([C@@H](O)CO)C(O)=C1O [Ascorbic Acid, Ascorbic acid, reference compound] | 

Source: article PMC9861830, “Hydroxylated Coumarin-Based Thiosemicarbazones as Dual Antityrosinase and Antioxidant Agents” (International Journal of Molecular Sciences, 2023)
